The source of these data is patent US7772227B2, “Tricyclic 1-[(indol-3-yl)carbonyl]piperazine derivatives as cannabinoid CB1 receptor agonists” (N.V. Organon, priority 2003, dated 2010).

Where a name gives a salt, the structure may show the parent alone. Read-outs that look alike come from different tables or passages of the source.

In assay [1] the target is T1, human CB1 receptor (Homo sapiens, UniProt P21554).
T1 construct: expressed in transfected cells; host or cells: Chinese Hamster Ovary (CHO) cells
T1 sequence (P21554 whole entry): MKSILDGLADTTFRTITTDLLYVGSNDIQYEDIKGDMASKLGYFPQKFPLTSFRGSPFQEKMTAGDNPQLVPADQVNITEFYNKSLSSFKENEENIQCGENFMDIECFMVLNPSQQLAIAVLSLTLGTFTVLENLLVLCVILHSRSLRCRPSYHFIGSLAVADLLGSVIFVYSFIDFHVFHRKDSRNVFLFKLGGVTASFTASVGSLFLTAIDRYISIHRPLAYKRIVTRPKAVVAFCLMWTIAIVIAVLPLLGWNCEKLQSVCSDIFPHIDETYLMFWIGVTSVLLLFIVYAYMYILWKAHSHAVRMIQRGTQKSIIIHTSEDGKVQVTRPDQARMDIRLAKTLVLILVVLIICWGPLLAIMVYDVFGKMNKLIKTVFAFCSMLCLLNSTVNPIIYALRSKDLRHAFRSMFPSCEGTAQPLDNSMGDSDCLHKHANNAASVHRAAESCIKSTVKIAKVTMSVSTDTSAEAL
The experiment in a line: Efficacy and potency at the human CB1 receptor expressed in CHO cells (luciferase reporter gene). Format: cell-based. Particulars: 5 h incubation at 37° C. How it is done: Methods to determine receptor binding as well as in vitro biological activity of cannabinoid receptor modulators are well known in the art. In general, expressed receptor is contacted with the compound to be tested and binding or stimulation or inhibition of a functional response is measured.
Chinese Hamster Ovary (CHO) cells expressing the human CB1 receptor and a luciferase reporter gene were suspended in phenol red/serum free DMEM/F-12 nut mix containing penicillin/streptomycin (50 U/50 μg/ml) and fungizone (1 μg/ml) and seeded into 96 well plates at a density of 3×10^4 cells per well (100 μl final volume). Cells were incubated overnight (approx. 18 h at 37° C., 5% CO2/95% air) prior to assay.
The test compound (10 mM solution in dimethylsulfoxide) was diluted in F12 Nut Mix to give a range of stock solutions from 0.11 mM to 0.11 nM. The stock solutions (10 μl) were added directly to the relevant wells. The plates were incubated at 37° C. for 5 h to allow agonist-induced expression of the luciferase enzyme. Under subdued light, LucLite substrate (Packard; reconstituted as per manufacturer's instructions; 100 μl) was added to each well. Plates were covered with Top Seal and then incubated at room temperature for 5 minutes before counting on the Packard TopCount (single photon counting, 0.01 minute count time, 5 minute count delay).
A “best-fit” curve was fitted by a minimum sum of squares method to the plot of counts per second (CPS) against compound concentration (M) to obtain an EC50 value.
Background: A reporter such as luciferase makes a cellular process visible.

Assay [2] concerns mice. The experiment in a line: Tail flick latency in mice. Format: in vivo. Conditions: Mus musculus, iv, administered intravenously, ED50 calculated at Tmax, read-out: ED50 (increase of tail flick latency). How it is done: Mice were trained to sit still in a tail flick apparatus (Ugo Basile, Italy) whilst tail flick latency was measured. The tail was exposed to a focused beam of radiant heat at a point approximately 2.5 cm from the tip. Tail flick latency was defined as the interval between the appliance of the thermal stimulus and withdrawal of the tail. A 12 second cut-off was employed to prevent tissue damage. Four groups of eight mice were treated with vehicle or one of three doses of the test compound, administered intravenously (vehicle: saline 9 g/l; injection volume 10 ml/kg). Tail flick latency was measured before administration of the test compound and at regular intervals (typically 20, 40 and 60 minutes) after compound administration. The ED50 was calculated at Tmax.

Where [3] appears, read: CHO cells expressing human CB1 receptor and luciferase reporter gene, read-out: pEC50 (converted).
Setting [4] is: CHO cells expressing human CB1 receptor and luciferase reporter gene.

As for `CCN1CCN(C(=O)c2cn3c4c(cccc24)CCC3C2CCCCC2)CC1` (single isomer, unassigned; (+)) [Example 13, (+)-4-Cyclohexyl-5,6-dihydro-1-(4-ethylpiperazin-1-ylcarbonyl)-4H-pyrrolo[3,2,1-ij]-quinoline hydrochloride salt], in assay [1] (setting [3]), the EC50 was 50.1 nM.
In the case of `CN1CCN(C(=O)c2cn3c4c(cccc24)CCC3C2CCCCC2)CC1` (single isomer, unassigned; (+)) [Example 14, (+)-(4-Cyclohexyl-5,6-dihydro-1-(4-methylpiperazin-1-ylcarbonyl)-4H-pyrrolo[3,2,1-ij]-quinoline hydrochloride salt], the EC50 in assay [1] (setting [3]) was 79.4 nM. The ED50 (usually the dose at which the effect has come halfway, by size or by number of responders) in assay [2] was less than 5 µmol/kg.
For `CCN1CCN(C(=O)c2cn3c4c(cccc24)CCC3C2CCCC2)CC1` (single isomer, unassigned; (-)) [Example 12B, (−)-4-Cylclopentyl-5,6-dihydro-1-(4-ethylpiperazin-1-ylcarbonyl)-4H-pyrrolo[3,2,1-ij]quinoline hydrochloride salt], in assay [1] (setting [3]), the EC50 is 39.8 nM.
For the compound `CCN1CCN(C(=O)c2cn3c4c(cccc24)CCC3C2CCCCC2)CC1` (single isomer, unassigned; (-)) [Example 15, (−)-(4-Cyclohexyl-5,6-dihydro-1-(4-ethylpiperazin-1-ylcarbonyl)-4H-pyrrolo[3,2,1-ij]quinoline hydrochloride salt], the EC50 in assay [1] (setting [3]) was 31.6 nM. Moreover, the ED50 in assay [2] was less than 5 µmol/kg.
Regarding `CN1CCN(C(=O)c2cn3c4c(cccc24)CCC3C2CCCCC2)CC1` (single isomer, unassigned; (-)) [Example 16, (−)-(4-Cyclohexyl-5,6-dihydro-1-(4-methylpiperazin-1-ylcarbonyl)-4H-pyrrolo[3,2,1-ij]-quinoline hydrochloride salt], in assay [1] (setting [3]), the EC50 was 25.1 nM.
As for `CCN1CCN(C(=O)c2cn3c4c(cccc24)OC[C@H]3C2CCCCC2)CC1.Cl` [Example 1, (R)-3-Cyclohexyl-2,3-dihydro-6-(4-ethylpiperazin-1-ylcarbonyl)pyrrolo[1,2,3-de]-1,4-benzoxazine hydrochloride salt], in assay [1] (setting [4]), the pEC50 – broadly, the EC50 on a negative log10 scale, so that one unit is a factor of ten – amounted to 7.5.
Consider `O=C(c1cn2c3c(cccc13)OC[C@H]2C1CCCCC1)N1CCN2CCCC[C@H]2C1` [Example 2, (R)-3-Cyclohexyl-2,3-dihydro-6-[(S)-octahydro-2H-pyrido[1,2-a]pyrazin-2-ylcarbonyl]-pyrrolo[1,2,3-de]-1,4-benzoxazine hydrochloride salt], for which the EC50 in assay [1] (pEC50, CHO cells expressing human CB1 receptor and luciferase reporter gene) is 10 nM. Moreover, the ED50 in assay [2] was less than 5 µmol/kg.
For the compound `C[C@H]1CN(C(=O)c2cn3c4c(cccc24)OC[C@H]3C2CCCCC2)CCN1C.Cl` [Example 4, (R)-3-Cyclohexyl-2,3-dihydro-6-[(S)-3,4-dimethylpiperazin-1-ylcarbonyl]pyrrolo[1,2,3-de]-1,4-benzoxazine hydrochloride salt], the negative logarithm of the EC50 (pEC50) in assay [1] (setting [4]) is given as 7.8. Also, in assay [2], the ED50 was less than 5 µmol/kg.
In assay [1] (setting [4]), `CN1CCN(C(=O)c2cn3c4c(cccc24)OC[C@H]3C2CCCCC2)CC1.Cl` [Example 5C, (R)-3-Cyclohexyl-2,3-dihydro-6-[4-methylpirerazin-1-ylcarbonyl]pyrrolo[1,2,3-de]-1,4-benzoxazine hydrochloride salt] gave a pEC50 of 7.0.
The compound `C[C@@H]1CN(C(=O)c2cn3c4c(cccc24)OC[C@H]3C2CCCCC2)C[C@H](C)N1C.Cl` [Example 7, (R)-3-Cyclohexyl-2,3-dihydro-6-[(cis)-3,4,5-trimethylpiperazin-1-ylcarbonyl]pyrrolo[1,2,3-de]-1,4-benzoxazine hydrochloride salt] returned a pEC50 in assay [1] (setting [4]) of 8.2.
In the case of `CCN1[C@H](C)CN(C(=O)c2cn3c4c(cccc24)OC[C@H]3C2CCCCC2)C[C@@H]1C.Cl` [Example 8, (R)-3-Cyclohexyl-2,3-dihydro-6-[(cis)-3,5-dimethyl-4-ethylpiperazin-1-ylcarbonyl]-pyrrolo[1,2,3-de]-1,4-benzoxazine hydrochloride salt], in assay [1] (setting [4]), the pEC50 is 8.4.
Still for that read-out and setting: as for `C[C@@H]1CN(C(=O)c2cn3c4c(cccc24)OC[C@H]3C2CCCCC2)C[C@H](C)N1CCO.Cl` [Example 9, (R)-3-Cyclohexyl-2,3-dihydro-6-[(cis)-3,5-dimethyl-4-(2-hydroxyethyl)piperazin-1-ylcarbonyl]pyrrolo[1,2,3-de]-1,4-benzoxazine hydrochloride salt], the figure is 8.2; as for `COCCN1[C@H](C)CN(C(=O)c2cn3c4c(cccc24)OC[C@H]3C2CCCCC2)C[C@@H]1C.Cl` [Example 10, (R)-3-Cyclohexyl-2,3-dihydro-6-[(cis)-3,5-dimethyl-4-(2-methoxyethyl)piperazin-1-yl-carbonyl]pyrrolo[1,2,3-de]-1,4-benzoxazine hydrochloride salt], 8.3.
